IC50 data for 16 compounds are collected here from patent publication US20260347373A1, “HETEROCYCLIC COMPOUNDS, COMPOSITIONS THEREOF, AND METHODS OF TREATMENT THEREWITH” (BeOne Medicines I GmbH, priority 2023, published 2026).

In one assay the target is KRAS G12D (Homo sapiens, UniProt P01116, G12D). Nature of the assay: KRAS G12D Probe Displacement Assay (TR-FRET, GDP-loaded). Format: binding. The text has this: (§1) The synthetic routes of probe 1 and 2, which have been disclosed in PCT/CN2022/070676, are hereby incorporated herein.
Sequence of KRAS G12D (P01116 1-188 isoform P01116-2 G12D): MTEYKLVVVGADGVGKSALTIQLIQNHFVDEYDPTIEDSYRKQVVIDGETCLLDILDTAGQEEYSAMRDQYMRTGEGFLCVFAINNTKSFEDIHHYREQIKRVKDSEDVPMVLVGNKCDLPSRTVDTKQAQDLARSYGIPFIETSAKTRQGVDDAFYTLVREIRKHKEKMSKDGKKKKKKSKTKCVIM
Background: TR-FRET usually uses a lanthanide donor and a delayed reading to cut background.

The target of another assay is WT KRAS (Homo sapiens, UniProt P01116). Nature of the assay: KRAS WT Probe Displacement Assay (TR-FRET, GDP-loaded). Format: binding.
Sequence of WT KRAS (P01116 1-188 isoform P01116-2): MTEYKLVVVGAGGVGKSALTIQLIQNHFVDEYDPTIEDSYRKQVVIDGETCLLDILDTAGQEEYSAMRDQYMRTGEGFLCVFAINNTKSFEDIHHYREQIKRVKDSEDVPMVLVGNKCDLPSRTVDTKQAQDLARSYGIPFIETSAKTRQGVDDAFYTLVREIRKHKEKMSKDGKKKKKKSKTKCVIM
Excerpt: as §1

Where [1] appears, read: KRAS G12D, read-out: KRAS^G12D Probe Displacement Assay IC50.
[2] abbreviates: KRAS WT, read-out: KRAS^WT Probe Displacement Assay IC50.

Where two headings read alike, the source gives them in different places. Where only a bound is given, the exact number is not on record here.

The term IC50 denotes the concentration at which inhibition is half-maximal. Take `[2H]C([2H])([2H])c1cc(N)cc(-c2nc3c4c(nc(OC[C@]5(CN(C)C)CC5(F)F)nc4c2F)N2C[C@H]4CC[C@H](N4)[C@H]2CCO3)c1C(F)(F)F` [Example 47, 3-((6aR,7S,10R)-13-(((R)-1-((dimethylamino)methyl)-2,2-difluorocyclopropyl)methoxy)-1-fluoro-5,6,6a,7,8,9,10,11-octahydro-4-oxa-3,11a,12,14,15-pentaaza-7,10-methanocyclohepta[4,5]cycloocta [1,2,3-de]naphthalen-2-yl)-5-(methyl-d3)-4-(trifluoromethyl)aniline]: the IC50 on KRAS G12D (setting [1]) is less than 0.3 nM; at WT KRAS (setting [2]) it was 3 to 1000 nM.
For the compound `Cc1cc(N)cc(-c2nc3c4c(nc(N5CC(C)(N(C)C)C5)nc4c2F)N2C[C@H]4CC[C@H](N4)[C@H]2CCO3)c1C(F)(F)F` [Example 30], the values for the 50% inhibitory concentration (IC50) at KRAS G12D (setting [1]) and on WT KRAS (setting [2]) were 0.3 to 3 nM and 3 to 1000 nM, respectively.
For `Cc1cc(N)cc(-c2nc3c4c(nc(OCC5(CN6CCOC[C@@H]6C)CC5)nc4c2F)N2C[C@H]4CC[C@H](N4)[C@H]2CCO3)c1C(F)(F)F` [Example 164, 3-((6aR,7S,10R)-1-fluoro-13-((1-(((S)-3-methylmorpholino)methyl)cyclopropyl)methoxy)-5,6,6a,7,8,9,10,11-octahydro-4-oxa-3,11a,12,14,15-pentaaza-7,10-methanocyclohepta[4,5]cycloocta[1,2,3-de]naphthalen-2-yl)-5-methyl-4-(trifluoromethyl)aniline], the 50% inhibitory concentration (IC50) at KRAS G12D (setting [1]) was less than 0.3 nM; at WT KRAS (setting [2]), 3 to 1000 nM.
In the same order, the values of `Cc1cc(N)cc(-c2nc3c4c(nc(OCC5(CN6CCC=C(F)C6)CC5)nc4c2F)N2C[C@H]4CC[C@H](N4)[C@H]2CCO3)c1C(F)(F)F` [Example 179, 3-((6aR,7S,10R)-1-fluoro-13-((1-((5-fluoro-3,6-dihydropyridin-1(2H)-yl)methyl)cyclopropyl)methoxy)-5,6,6a,7,8,9,10,11-octahydro-4-oxa-3,11a,12,14,15-pentaaza-7,10-methanocyclohepta[4,5]cycloocta[1,2,3-de]naphthalen-2-yl)-5-methyl-4-(trifluoromethyl)aniline] are less than 0.3 nM and 3 to 1000 nM.
Take `Cc1cc(N)cc(-c2nc3c4c(nc(OCC5(CN6CCn7cncc7C6)CC5)nc4c2F)N2C[C@H]4CC[C@H](N4)[C@H]2CCO3)c1C(F)(F)F` [Example 108, 3-((6aR,7S,10R)-13-((1-((5,6-dihydroimidazo [1,5-a]pyrazin-7(8H)-yl)methyl)cyclopropyl)methoxy)-1-fluoro-5,6,6a,7,8,9, 10,11-octahydro-4-oxa-3,11a,12,14,15-pentaaza-7,10-methanocyclohepta [4,5]cycloocta [1,2,3-de]naphthalen-2-yl)-5-methyl-4-(trifluoromethyl)aniline]: the concentration for half-maximal inhibition (IC50) was in the range of 0.3 to 3 nM on KRAS G12D (setting [1]) and 3 to 1000 nM at WT KRAS (setting [2]).
For `Cc1cc(N)cc(-c2nc3c4c(nc(OCC5(CN6C[C@@H]7C[C@@H]7[C@H]6C)CC5)nc4c2F)N2C[C@H]4CC[C@H](N4)[C@H]2CCO3)c1C(F)(F)F` [Example 171, 3-((6aR,7S,10R)-1-fluoro-13-((1-(((1S,2R,5R)-2-methyl-3-azabicyclo[3.1.0]hexan-3-yl)methyl)cyclopropyl)methoxy)-5,6,6a,7,8,9,10,11-octahydro-4-oxa-3,11a,12,14,15-pentaaza-7,10-methanocyclohepta[4,5]cycloocta[1,2,3-de]naphthalen-2-yl)-5-methyl-4-(trifluoromethyl)aniline], in that order: less than 0.3 nM and 3 to 1000 nM.
On to `Cc1cc(N)cc(-c2nc3c4c(nc(O[C@@H](C)[C@@H]5CCCN5CC5CC5)nc4c2F)N2C[C@H]4CC[C@H](N4)[C@H]2CCO3)c1C(F)(F)F` [Example 230, 3-((6aR,7S,10R)-13-((S)-1-((S)-1-(cyclopropylmethyl)pyrrolidin-2-yl)ethoxy)-1-fluoro-5,6,6a,7,8,9,10,11-octahydro-4-oxa-3,11a,12,14,15-pentaaza-7,10-methanocyclohepta[4,5]cycloocta[1,2,3-de]naphthalen-2-yl)-5-methyl-4-(trifluoromethyl)aniline], for which the values for the IC50 on KRAS G12D (setting [1]) and on WT KRAS (setting [2]) were less than 0.3 nM and 3 to 1000 nM, respectively.
For `Cc1cc(N)cc(-c2nc3c4c(nc(OCC5(C6CCCN6C)CC5)nc4c2F)N2C[C@H]4CC[C@H](N4)[C@H]2CCO3)c1C(F)(F)F` (mixture of isomers) [Example 63, 3-((6aR,7S,10R)-1-fluoro-13-((1-(1-methylpyrrolidin-2-yl)cyclopropyl)methoxy)-5,6,6a,7,8,9,10,11-octahydro-4-oxa-3,11a,12,14,15-pentaaza-7,10-methanocyclohepta[4,5]cycloocta[1,2,3-de]naphthalen-2-yl)-5-methyl-4-(trifluoromethyl)aniline], in that order: less than 0.3 nM and 3 to 1000 nM.
For `[2H]C([2H])([2H])c1cc(N)cc(-c2nc3c4c(nc(OCC56C[C@@H](F)CN5C[C@H](F)C6)nc4c2F)N2C[C@H]4CC[C@H](N4)[C@H]2CCO3)c1C(F)(F)F` [Example 73, 3-((6aR,7S,10R)-13-(((2R,6R)-2,6-difluorotetrahydro-1H-pyrrolizin-7a(5H)-yl)methoxy)-1-fluoro-5,6,6a,7,8,9,10,11-octahydro-4-oxa-3,11a,12,14,15-pentaaza-7,10-methanocyclohepta[4,5]cycloocta [1,2,3-de]naphthalen-2-yl)-5-(methyl-d3)-4-(trifluoromethyl)aniline], in that order: less than 0.3 nM and 3 to 1000 nM.
In the same order, the values of `Cc1cc(N)cc(-c2nc3c4c(nc(OCC5(C)COCC5N(C)C)nc4c2F)N2C[C@H]4CC[C@H](N4)[C@H]2CCO3)c1C(F)(F)F` (single isomer, unassigned) [Example 42] are 0.3 to 3 nM and 3 to 1000 nM.
For `COC1CCCN(CC2(COc3nc4c5c(nc(-c6cc(N)cc(C)c6C(F)(F)F)c(F)c5n3)OCC[C@@H]3[C@@H]5CC[C@H](CN43)N5)CC2)C1` (stereo partly drawn) [Example 119, 3-((6aR,7S,10R)-1-fluoro-13-((1-((3-methoxypiperidin-1-yl)methyl)cyclopropyl)methoxy)-5,6,6a,7,8,9,10,11-octahydro-4-oxa-3,11a,12,14,15-pentaaza-7,10-methanocyclohepta [4,5]cycloocta[1,2,3-de]naphthalen-2-yl)-5-methyl-4-(trifluoromethyl) aniline], the half-inhibitory concentration (IC50) is less than 0.3 nM at KRAS G12D (KRAS^G12D Probe Displacement Assay IC50, KRAS G12D) and 3 to 1000 nM at WT KRAS (KRAS^WT Probe Displacement Assay IC50, KRAS WT).
Regarding `Cc1cc(N)cc(-c2nc3c4c(nc(OCC5(CN6CCC(OC(F)(F)F)CC6)CC5)nc4c2F)N2C[C@H]4CC[C@H](N4)[C@H]2CCO3)c1C(F)(F)F` [Example 177, 3-((6aR,7S,10R)-1-fluoro-13-((1-((4-(trifluoromethoxy)piperidin-1-yl)methyl)cyclopropyl)methoxy)-5,6,6a,7,8,9,10,11-octahydro-4-oxa-3,11a,12,14,15-pentaaza-7,10-methanocyclohepta[4,5]cycloocta[1,2,3-de]naphthalen-2-yl)-5-methyl-4-(trifluoromethyl)aniline], the half-maximal inhibitory concentration (IC50) at KRAS G12D (setting [1]) is less than 0.3 nM; on WT KRAS (setting [2]) it was 0.3 to 3 nM.
In the same order, the values of `Cc1cc(N)cc(-c2nc3c4c(nc(OC[C@@]56CCCN5CC(F)(F)C6)nc4c2F)N2C[C@H]4CC[C@H](N4)[C@H]2CCO3)c1C(F)(F)F` [Example 33, 3-((6aR,7S,10R)-13-(((S)-2,2-difluorotetrahydro-1H-pyrrolizin-7a(5H)-yl)methoxy)-1-fluoro-5,6,6a,7,8,9,10,11-octahydro-4-oxa-3,11a,12,14,15-pentaaza-7,10-methanocyclohepta[4,5]cycloocta [1,2,3-de]naphthalen-2-yl)-5-methyl-4-(trifluoromethyl)aniline] are less than 0.3 nM and 3 to 1000 nM.
Regarding `Cc1cc(N)cc(-c2nc3c4c(nc(OCC5(CN6CC(C(F)(F)F)C6)CC5)nc4c2F)N2C[C@H]4CC[C@H](N4)[C@H]2CCO3)c1C(F)(F)F` [Example 79, 3-((6aR,7S,10R)-1-fluoro-13-((1-((3-(trifluoromethyl)azetidin-1-yl)methyl)cyclopropyl)methoxy)-5,6,6a,7,8,9,10,11-octahydro-4-oxa-3,11a,12,14,15-pentaaza-7,10-methanocyclohepta [4,5]cycloocta [1,2,3-de]naphthalen-2-yl)-5-methyl-4-(trifluoromethyl)aniline], the IC50 at KRAS G12D (setting [1]) is less than 0.3 nM; on WT KRAS (setting [2]), 3 to 1000 nM.
Turning to `Cc1cc(N)cc(-c2nc3c4c(nc(OCC5(CN6CCSCC6)CC5)nc4c2F)N2C[C@H]4CC[C@H](N4)[C@H]2CCO3)c1C(F)(F)F` [Example 159, 3-((6aR,7S,10R)-1-fluoro-13-((1-(thiomorpholinomethyl)cyclopropyl)methoxy)-5,6,6a,7,8,9,10,11-octahydro-4-oxa-3,11a,12,14,15-pentaaza-7,10-methanocyclohepta[4,5]cycloocta[1,2,3-de]naphthalen-2-yl)-5-methyl-4-(trifluoromethyl)aniline], the figures for the IC50 at KRAS G12D (setting [1]) and on WT KRAS (setting [2]) were less than 0.3 nM and 0.3 to 3 nM, respectively.
For `[2H]C([2H])([2H])N1C[C@H](OC)C[C@H]1[C@H](C)Oc1nc2c3c(nc(-c4cc(N)cc(Cl)c4C(F)(F)F)c(F)c3n1)OCC[C@@H]1[C@@H]3CC[C@H](CN21)N3` [Example 220, 3-chloro-5-((6aR,7S,10R)-1-fluoro-13-((S)-1-((2S,4R)-4-methoxy-1-(methyl-d3)pyrrolidin-2-yl)ethoxy)-5,6,6a,7,8,9,10,11-octahydro-4-oxa-3,11a,12,14,15-pentaaza-7,10-methanocyclohepta[4,5]cycloocta[1,2,3-de]naphthalen-2-yl)-4-(trifluoromethyl)aniline], in that order: less than 0.3 nM and 3 to 1000 nM.
